≈ marks a conversion by molar mass, not a printed value.
Tests used:
Type in all cases: cell-based
[1] = test system: Staphylococcus epidermidis (ATCC 12228); test: Other MIC determination, microdilution method (CLSI M07-A9) with modifications; conditions: ATCC12228, 10^6 CFU/ml, 18h at 37 °C
Protocol: (§1) The microdilution method recommended by the Clinical and Laboratory Standard Institute [M07-A9, Vol.32, N°2] was used with the following modifications.
(§2) Bacterial inocula were prepared in Mueller Hinton broth (MH2, BioMérieux, Marcy L'Etoile, France). They were dispensed in 96 well microtiter plates (10^6 CFU/ml of final inoculum, 192 µL per well).
(§3) To avoid cross-contaminations in microtiter plates, one row was left blank between each strain tested. Microplates were incubated for 18h at 37 °C in ambient air. Then MICs were read visually and, in case of visual reading difficulties, confirmed using a spectrophotometer at a wavelength of 630 nm (BioTek® EL808 Absorbance Microplate Reader). MICs corresponded to the minimum pyrrolic compound concentrations that allowed complete visual growth inhibition of bacteria. Drug-free cultures served as growth controls.
(§4) We used four Staphylococcus aureus strains. Two reference strains were provided by the French reference center for Staphylococcus spp. (Lyon, France), including one methicillin-susceptible (MSSA 476) and one methicillin-resistant (MRSA 252) S. aureus strains. The two remaining S. aureus strains were purchased from the CRBIP (Centre de Ressources Biologiques de l'Institut Pasteur): a vancomycin-intermediate strain (ATCC 106414) and a S. aureus strain (SA-1199B) resistant to fluoroquinolones due to overexpression of the NorA multidrug efflux pump. Coagulase-negative Staphylococcus strains included three reference strains purchased from CRBIP: a methicillin-susceptible S. epidermidis strain (ATCC 12228), a methicillin-resistant S. epidermidis strain (ATCC 49461), and a methicillin-susceptible S. sciuri strain (ATCC 29061). We also used 37 clinical strains belonging to the following coagulase-negative Staphylococcus species: S. arlettae (two strains), S. capitis (nine strains), S. epidermidis (one strain), S. haemolyticus (six strains), S. hominis (eight strains), S. lugdunensis (one strain), S. massiliensis (one strain), S. pettenkoferi (two strains), S. saprophyticus (two strains), S. simulans (one strain), and S. warneri (four strains) . Identification of the clinical strains was first obtained using VITEK® 2 System (Biomérieux) and confirmed by amplification and sequencing of the tuf gene (Reference: Bergeron, M., O. Dauwalder, M. Gouy, A.-M. Freydiere, M. Bes, H. Meugnier, Y. Benito, J. Etienne, G. Lina, F. Vandenesch, and S. Boisset. Species identification of staphylococci by amplification and sequencing of the tuf gene compared to the gap gene and by matrix-assisted laser desorption ionization time-of-flight mass spectrometry, Eur. J. Clin. Microbial. Infect. Dis. 2011, 30, 343-354).
(§5) The activity of pyrrolic compounds 3c, 3e-3j and 3n was first tested against 12 Staphylococcus sp. strains, including 7 reference strains and five clinical strains. The MICs of these compounds against Staphylococcus aureus ATCC 106414 (VISA) and Staphylococcus epidermidis ATCC 12228 are in accordance with those described in Tables I and II.

[2] = test system: Staphylococcus warneri (CHUG-Swar1); test: as above; conditions: 10^6 CFU/ml, 18h at 37 °C
Protocol: as §1, §2, §3, §4, §5

[3] = test system: Staphylococcus pettenkoferi (CHUG-Spet1); test: as above; conditions: 10^6 CFU/ml, 18h at 37 °C
Protocol: as §1, §2, §3, §4, §5

[4] = test system: Staphylococcus epidermidis (ATCC 49461); test: as above; conditions: ATCC49461, 10^6 CFU/ml, 18h at 37 °C
Protocol: as §1, §2, §3, §4, §5

[5] = test system: Staphylococcus aureus (MSSA476); test: as above; conditions: 10^6 CFU/ml, 18h at 37 °C
Protocol: as §1, §2, §3, §4, §5

[6] = test system: Staphylococcus capitis (CHUG-Scapi1); test: as above; conditions: 10^6 CFU/ml, 18h at 37 °C
Protocol: as §1, §2, §3, §4, §5

[7] = test system: Staphylococcus hominis(CHUG-Shom1); test: as above; conditions: 10^6 CFU/ml, 18h at 37 °C
Protocol: as §1, §2, §3, §4, §5

[8] = test system: Staphylococcus haemolyticus (CHUG-Shae1); test: as above; conditions: 10^6 CFU/ml, 18h at 37 °C
Protocol: as §1, §2, §3, §4, §5

[9] = test system: Staphylococcus aureus (MRSA 252); test: as above; conditions: 10^6 CFU/ml, 18h at 37 °C
Protocol: as §1, §2, §3, §4, §5

[10] = test system: Staphylococcus sciuri (ATCC 29061); test: as above; conditions: Mammaliicoccus sciuri, ATCC29061, 10^6 CFU/ml, 18h at 37 °C
Protocol: as §1, §2, §3, §4, §5

[11] = test system: Staphylococcus aureus (ATCC 106414, VISA); test: as above; conditions: 10^6 CFU/ml, 18h at 37 °C
Protocol: as §1, §2, §3, §4, §5

[12] = test system: Serratia marcescens CIP 103551; test: MIC determination, microdilution method (CLSI M07-A8); conditions: CIP103551; Serratia marcescens CIP 103551; 18 hours incubation; read-out: MIC
Protocol: (§6) The microdilution method recommended by the Clinical and Laboratory Standard Institute [M07-A8, Vol.29, N°2] was used. The activity of pyrrolic compounds was tested against 29 bacterial strains belonging to 17 different species and 12 different genera (Staphylococcus, Streptococcus, Enterococcus, […], Bacillus, Haetttophilus, Escherichia, Klebsiella, Enterobacter, Serratia, Pseudomonas, and Acinetobacter). Bacterial inocula were prepared in Mueller Hinton broth (MH2, bioMérieux, Marcy L'Etoile, France), supplemented with 10% sheep blood for fastidious species (i.e., Streptococcus pneumoniae and Haemophilus influenzae). They were dispensed in 96 well microtiter plates (5 x 10^5 CFU/mL of final inoculum). Pyrrolic compounds were added to the wells as to obtain two-fold serial concentrations (0.25-64 mg/L). Plates were incubated at 37°C, in 5% CO2 enriched atmosphere for fastidious species only. MICs were read after 18 hours incubation of cultures, and corresponded to the minimum pyrrolic compound concentration that allowed complete visual growth inhibition of bacteria. Drug-free cultures served as growth controls. Cultures receiving gentamicine, ciprofloxacine or cefotaxime served as positive controls.

[13] = test system: Pseudomonas aeruginosa CIP 5933; test: as above; conditions: CIP5933; Pseudomonas aeruginosa CIP 5933; 18 hours incubation; read-out: MIC
Protocol: as §6

[14] = test system: Acinetobacter baumanii ATCC 19606; test: as above; conditions: Acinetobacter baumannii, ATCC19606; Acinetobacter baumanii ATCC 19606; 18 hours incubation; read-out: MIC
Protocol: as §6

[15] = test system: Escherichia coli ATCC 25922; test: as above; conditions: ATCC25922; Escherichia coli ATCC 25922; 18 hours incubation; read-out: MIC
Protocol: as §6

[16] = test system: Staphylococcus aureus ATCC 29213; test: as above; conditions: ATCC29213; Staphylococcus aureus ATCC 29213; 5 x 10^5 CFU/mL; 18 hours incubation; read-out: MIC
Protocol: as §6

[17] = test system: Staphylococcus epidermidis ATCC 12228; test: as above; conditions: ATCC12228; Staphylococcus epidermidis ATCC 12228; 5 x 10^5 CFU/mL; 18 hours incubation; read-out: MIC
Protocol: as §6

Structure (SMILES)	MIC [1] [µg/mL]	MIC [2] [µg/mL]	MIC [3] [µg/mL]	MIC [4] [µg/mL]	MIC [5] [µg/mL]	MIC [6] [µg/mL]	MIC [7] [µg/mL]	MIC [8] [µg/mL]	MIC [9] [µg/mL]	MIC [10] [µg/mL]	MIC [11] [µg/mL]	MIC [12] [µg/mL]	MIC [13] [µg/mL]	MIC [14] [µg/mL]	MIC [15] [µg/mL]	MIC [16] [µg/mL]	MIC [17] [µg/mL]
CC(=O)c1c(C)[nH]c(C(c2cc3ccccc3o2)c2[nH]c(C)c(C(C)=O)c2C)c1C [3e]	> 32	8 (≈ 19.9 µM)	> 32	> 32	4 (≈ 9.94 µM)	8 (≈ 19.9 µM)	> 32	> 32	8 (≈ 19.9 µM)	> 32	4 (≈ 9.94 µM)	> 128	> 128	> 128	> 128	2 (≈ 4.97 µM)	> 128
CC(=O)c1c(C)[nH]c(C(c2[nH]c(C)c(C(C)=O)c2C)c2csc3ccccc23)c1C [3i]	> 32	1 (≈ 2.39 µM)	> 32	> 32	0.5 (≈ 1.19 µM)	1 (≈ 2.39 µM)	> 32	4 (≈ 9.56 µM)	1 (≈ 2.39 µM)	> 32	0.5 (≈ 1.19 µM)	> 128	> 128	> 128	> 128	0.5 (≈ 1.19 µM)	> 128
CC(=O)c1c(C)[nH]c(C(c2ccc(Cl)cc2)c2[nH]c(C)c(C(C)=O)c2C)c1C [3c]	> 32	8 (≈ 20.2 µM)	> 32	> 32	4 (≈ 10.1 µM)	8 (≈ 20.2 µM)	> 32	16 (≈ 40.3 µM)	8 (≈ 20.2 µM)	> 32	4 (≈ 10.1 µM)	> 128	> 128	> 128	> 128	2 (≈ 5.04 µM)	> 128
COC(=O)c1cccc(C(c2[nH]c(C)c(C(C)=O)c2C)c2[nH]c(C)c(C(C)=O)c2C)c1 [3j, Methyl-3-[bis(4-acetyl-3,5-dimethyl-1H-pyrrol-2-yl)methyl]benzoate]	> 32	16 (≈ 38 µM)	> 32	> 32	4 (≈ 9.51 µM)	16 (≈ 38 µM)	> 32	16 (≈ 38 µM)	8 (≈ 19 µM)	> 32	4 (≈ 9.51 µM)	> 32	> 32	> 32	> 32	2 (≈ 4.76 µM)	> 128
CC(=O)c1c(C)[nH]c(C(c2ccc(F)cc2)c2[nH]c(C)c(C(C)=O)c2C)c1C [3g]	> 32	8 (≈ 21 µM)	> 32	> 32	4 (≈ 10.5 µM)	8 (≈ 21 µM)	> 32	16 (≈ 42.1 µM)	8 (≈ 21 µM)	> 32	4 (≈ 10.5 µM)	> 32	> 32	> 32	> 32	1 (≈ 2.63 µM)	> 128
CC(=O)c1c(C)[nH]c(C(c2[nH]c(C)c(C(C)=O)c2C)c2csc3ccc(Br)cc23)c1C [3n]	> 32	0.25 (≈ 0.503 µM)	> 32	> 32	0.125 (≈ 0.251 µM)	0.125 (≈ 0.251 µM)	> 32	1 (≈ 2.01 µM)	0.125 (≈ 0.251 µM)	> 32	0.125 (≈ 0.251 µM)						
CC(=O)c1c(C)[nH]c(C(c2[nH]c(C)c(C(C)=O)c2C)c2cccc3ccccc23)c1C [3h]	> 32	2 (≈ 4.85 µM)	> 32	> 32	1 (≈ 2.42 µM)	4 (≈ 9.7 µM)	> 32	4 (≈ 9.7 µM)	2 (≈ 4.85 µM)	> 32	1 (≈ 2.42 µM)	> 128	> 128	> 128	> 128	1 (≈ 2.42 µM)	> 128
CC(=O)c1c(C)[nH]c(C(c2cc3ccccc3s2)c2[nH]c(C)c(C(C)=O)c2C)c1C [3f]	> 32	4 (≈ 9.56 µM)	> 32	> 32	4 (≈ 9.56 µM)	> 32	> 32	> 32	4 (≈ 9.56 µM)	> 32	2 (≈ 4.78 µM)	> 128	> 128	> 128	> 128	2 (≈ 4.78 µM)	> 128

Reference: patent EP2812315B1, “PYRROLIC DERIVATIVES, PROCESSES FOR PREPARING THE SAME AND THEIR USES AS A DRUG” (Universite Joseph Fourier, priority 2012, dated 2013)
